Test results taken from PubChem BioAssay AID298 (DTP/NCI, 2004).
Values joined by “and” are separate entries in the source; they are usually repeats but may differ in a detail not shown here. Identical values can stand only once. Results filed as inconclusive are left out.

System: MX-1 breast xenograft, intrarenal, nude mice, tumor weight
Assay: NCI In Vivo Anticancer Drug Screen. Data for tumor model Human Mammary Carcinoma MX-1 Xenograft (intrarenal inoculation) in NU/NU BALB/C (nude) mice
Settings: endpoint: mean tumor weight change, higher = larger tumour
Method in brief: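 T/C readout: treated-group measurement over vehicle-control measurement, using tumor size or survival in tumor-bearing mice.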

[1] = dose: 50.0 mg/kg/injection, schedule: Q04DX003 (sc), vehicle: Klucel (hydroxypropylcellulose) (HPC)
[2] = dose: 100.0 mg/kg/injection, schedule: Q04DX003 (sc), vehicle: Klucel (hydroxypropylcellulose) (HPC)
[3] = dose: 150.0 mg/kg/injection, schedule: Q04DX003 (ip), vehicle: saline with Tween-80
[4] = dose: 300.0 mg/kg/injection, schedule: Q04DX003 (ip), vehicle: saline with Tween-80
[5] = dose: 600.0 mg/kg/injection, schedule: Q04DX003 (ip), vehicle: saline with Tween-80
[6] = dose: 150.0 mg/kg/injection, schedule: Q04DX003 (ip), vehicle: water
[7] = dose: 300.0 mg/kg/injection, schedule: Q04DX003 (ip), vehicle: water

SMILES: OC(CBr)C(O)C(O)C(O)CBr (stereo not drawn)
- T/C (dose: 15.0 mg/kg/injection, schedule: Q01DX010 (ip), vehicle: Klucel (hydroxypropylcellulose) (HPC)): 29 % of control
- T/C (dose: 30.0 mg/kg/injection, schedule: Q01DX010 (ip), vehicle: Klucel (hydroxypropylcellulose) (HPC)): 13 % of control
- T/C (dose: 50.0 mg/kg/injection, schedule: Q04DX003 (ip), vehicle: Klucel (hydroxypropylcellulose) (HPC)): 93 % of control
- T/C [1]: 35 % of control
- T/C (dose: 60.0 mg/kg/injection, schedule: Q01DX010 (ip), vehicle: Klucel (hydroxypropylcellulose) (HPC)): -22 % of control
- T/C (dose: 100.0 mg/kg/injection, schedule: Q04DX003 (ip), vehicle: Klucel (hydroxypropylcellulose) (HPC)): 61 % of control
- T/C [2]: 33 % of control
- T/C (dose: 200.0 mg/kg/injection, schedule: Q04DX003 (ip), vehicle: Klucel (hydroxypropylcellulose) (HPC)): -44 % of control

SMILES: CC1OC2CC(O)C1(O)C1=C2C(O)=C(C(N)=O)C(=N)C1=O (stereo not drawn)
- T/C (dose: 0.62 mg/kg/injection, schedule: Q04DX003 (ip), vehicle: saline): 99 % of control
- T/C (dose: 1.25 mg/kg/injection, schedule: Q04DX003 (ip), vehicle: saline): 62 % of control
- T/C (dose: 2.5 mg/kg/injection, schedule: Q04DX003 (ip), vehicle: saline): 101 % of control

SMILES: Nc1ccn([C@@H](C=O)C[C@@H](C=O)CO)c(=O)n1
- T/C (dose: 75.0 mg/kg/injection, schedule: Q04DX003 (ip), vehicle: saline): 76 % of control
- T/C (dose: 150.0 mg/kg/injection, schedule: Q04DX003 (ip), vehicle: saline): 124 % of control

SMILES: CNC(=O)O/N=C(\CN=[N+]=[N-])C(C)(C)C
- T/C (dose: 0.63 mg/kg/injection, schedule: Q04DX003 (sc), vehicle: saline): 116 % of control
- T/C (dose: 1.25 mg/kg/injection, schedule: Q04DX003 (sc), vehicle: saline): 71 % of control
- T/C (dose: 2.5 mg/kg/injection, schedule: Q04DX003 (sc), vehicle: saline): 84 % of control

SMILES: CCOC(=O)[C@]1(Br)CC[C@@]1(Br)C(=O)OCC
- T/C (dose: 300.0 mg/kg/injection, schedule: Q04DX003 (sc), vehicle: saline with Tween-80): 99 % of control
- T/C (dose: 600.0 mg/kg/injection, schedule: Q04DX003 (sc), vehicle: saline with Tween-80): 96 % of control
- T/C (dose: 1200.0 mg/kg/injection, schedule: Q04DX003 (sc), vehicle: saline with Tween-80): 94 % of control

SMILES: O=CC(NC(=O)N(CCCl)N=O)C(O)C(O)C(O)CO (stereo not drawn)
- T/C (dose: 3.0 mg/kg/injection, schedule: Q01DX010 (sc), vehicle: Klucel (hydroxypropylcellulose) (HPC)): 59 % of control
- T/C (dose: 6.0 mg/kg/injection, schedule: Q01DX010 (sc), vehicle: Klucel (hydroxypropylcellulose) (HPC)): 51 % of control

SMILES: O=C(Nc1cc(Cl)ccc1C(=O)O)c1cccc(C[n+]2ccccc2)c1
- T/C [3]: 109 % of control
- T/C [4]: 109 % of control
- T/C [5]: 82 % of control

SMILES: C=CC(C)(C)n1cc(C2=C(O)C(=O)C(c3cn(C(C)(C)C=C)c4ccccc34)=C(O)C2=O)c2ccccc21
- T/C [1]: 80 % of control
- T/C [2]: 96 % of control
- T/C (dose: 200.0 mg/kg/injection, schedule: Q04DX003 (sc), vehicle: Klucel (hydroxypropylcellulose) (HPC)): 76 % of control
- T/C (dose: 400.0 mg/kg/injection, schedule: Q04DX003 (sc), vehicle: Klucel (hydroxypropylcellulose) (HPC)): 74 % of control

SMILES: O=C1N[C@H]2[C@H](O)[C@H](O)[C@@H](O)[C@H](O)[C@@H]2c2cc3c(c(O)c21)OCO3
- T/C (dose: 12.5 mg/kg/injection, schedule: Q04DX003 (ip), vehicle: saline + alcohol): 72 % of control

SMILES: Nc1ncnc2c1c1c(=O)[nH]c(=O)[nH]c1n2C1OC(CO)C(O)C1O (stereo not drawn)
- T/C (dose: 112.5 mg/kg/injection, schedule: Q04DX003 (sc), vehicle: distilled water + Tween-80): 62 % of control
- T/C (dose: 225.0 mg/kg/injection, schedule: Q04DX003 (sc), vehicle: distilled water + Tween-80): 63 % of control
- T/C (dose: 450.0 mg/kg/injection, schedule: Q04DX003 (sc), vehicle: distilled water + Tween-80): 31 % of control
- T/C (dose: 900.0 mg/kg/injection, schedule: Q04DX003 (sc), vehicle: distilled water + Tween-80): 25 % of control

SMILES: CS(C)(O)NC(N)=O
- T/C [6]: 119 % of control
- T/C [7]: 154 % of control
- T/C (dose: 600.0 mg/kg/injection, schedule: Q04DX003 (ip), vehicle: water): 110 % of control
- T/C (dose: 1200.0 mg/kg/injection, schedule: Q04DX003 (ip), vehicle: water): 74 % of control

SMILES: COc1ccc(S(=O)(=O)N/N=C/C(=O)O)cc1
- T/C (dose: 25.0 mg/kg/injection, schedule: Q01DX010 (sc), vehicle: saline with Tween-80): 79 % of control
- T/C (dose: 50.0 mg/kg/injection, schedule: Q01DX010 (sc), vehicle: saline with Tween-80): 59 % of control
- T/C (dose: 100.0 mg/kg/injection, schedule: Q01DX010 (sc), vehicle: saline with Tween-80): 8 % of control

SMILES: O=C1N[C@@H]([C@H]2CC[C@H](Cl)CN2)C(=O)N[C@H]1[C@H]1CC[C@H](Cl)CN1
- T/C (dose: 0.31 mg/kg/injection, schedule: Q01DX010 (sc), vehicle: water): 62 % of control
- T/C (dose: 0.63 mg/kg/injection, schedule: Q01DX010 (sc), vehicle: water): 14 % of control
- T/C (dose: 1.25 mg/kg/injection, schedule: Q01DX010 (sc), vehicle: water): 1 % of control
- T/C (dose: 2.5 mg/kg/injection, schedule: Q01DX010 (sc), vehicle: water): -54 % of control
- T/C (dose: 5.0 mg/kg/injection, schedule: Q01DX010 (sc), vehicle: water): -87 % of control

SMILES: C[C@@](O)(/C=C/[C@H]1CC=CC(=O)O1)[C@@H](C[C@@H](O)\C=C/C=C\C=C\CO)OP(=O)(O)O
- T/C (dose: 1.5 mg/kg/injection, schedule: Q01DX009 (ip), vehicle: other): 113 % of control
- T/C (dose: 6.0 mg/kg/injection, schedule: Q01DX009 (ip), vehicle: other): 57 % of control
- T/C (dose: 12.0 mg/kg/injection, schedule: Q01DX009 (ip), vehicle: other): 61 % of control
- T/C (dose: 37.5 mg/kg/injection, schedule: Q04DX003 (sc), vehicle: other): 29 % of control

SMILES: CCCCCCn1c(SC)nc(COC(=O)NC)c1COC(=O)NC
- T/C (dose: 33.7 mg/kg/injection, schedule: Q04DX003 (ip), vehicle: saline): 6 % of control
- T/C (dose: 67.5 mg/kg/injection, schedule: Q04DX003 (ip), vehicle: saline): -37 % of control
- T/C (dose: 135.0 mg/kg/injection, schedule: Q04DX003 (ip), vehicle: saline): -86 % of control
- T/C (dose: 270.0 mg/kg/injection, schedule: Q04DX003 (ip), vehicle: saline): -100 % of control

SMILES: COC(=O)NC1C(C)OC(OC2C/C=C(/C)C3C=CC4C(OC5CC(OC6CC(OC7CC(O)C(O)C(C)O7)C(OC7CC(O)C(OC)C(C)O7)C(C)O6)C(O)C(C)O5)C(C)CC(C)C4C3(C)/C(O)=C3\C(=O)OC4(CC(C)C(CO)=CC4/C=C\2C)C3=O)CC1(C)[N+](=O)[O-] (stereo not drawn)
- T/C (dose: 75.0 mg/kg/injection, schedule: Q04DX003 (ip), vehicle: water): 198 % of control
- T/C [6]: 120 % of control
- T/C [7]: 73 % of control

SMILES: CC[PH+](CC)CC[S-].CC[PH+](CC)CC[S-].[Au+].[Au+]
- T/C (dose: 40.0 mg/kg/injection, schedule: Q04DX003 (sc), vehicle: Klucel (hydroxypropylcellulose) (HPC)): 87 % of control
- T/C (dose: 80.0 mg/kg/injection, schedule: Q04DX003 (sc), vehicle: Klucel (hydroxypropylcellulose) (HPC)): 69 % of control
- T/C (dose: 160.0 mg/kg/injection, schedule: Q04DX003 (sc), vehicle: Klucel (hydroxypropylcellulose) (HPC)): 55 % of control
- T/C (dose: 320.0 mg/kg/injection, schedule: Q04DX003 (sc), vehicle: Klucel (hydroxypropylcellulose) (HPC)): 80 % of control

SMILES: Nc1ccn(C2CC(N)C(CO)O2)c(=O)n1 (stereo not drawn)
- T/C (dose: 75.0 mg/kg/injection, schedule: Q04DX003 (ip), vehicle: saline with Tween-80): 77 % of control
- T/C [3]: 105 % of control
- T/C [4]: 74 % of control
- T/C [5]: 82 % of control

SMILES: CN(C)CCNc1ccc(CO)c2sc3ccc(O)cc3c(=O)c12
- T/C (dose: 50.0 mg/kg/injection, schedule: Q04DX003 (ip), vehicle: saline with Tween-80): 30 % of control
- T/C (dose: 100.0 mg/kg/injection, schedule: Q04DX003 (ip), vehicle: saline with Tween-80): 25 % of control and 26 % of control and 28 % of control
- T/C (dose: 200.0 mg/kg/injection, schedule: Q04DX003 (ip), vehicle: saline with Tween-80): 6 % of control and 17 % of control and 28 % of control
- T/C (dose: 400.0 mg/kg/injection, schedule: Q04DX003 (ip), vehicle: saline with Tween-80): 5 % of control and 10 % of control and 18 % of control

SMILES: C/C(=N\NC(=O)c1ccccc1O)c1cccc(/C(C)=N/NC(=O)c2ccccc2O)n1
- T/C (dose: 25.0 mg/kg/injection, schedule: Q04DX003 (ip), vehicle: saline): 109 % of control
- T/C (dose: 50.0 mg/kg/injection, schedule: Q04DX003 (ip), vehicle: saline): 77 % of control
- T/C (dose: 100.0 mg/kg/injection, schedule: Q04DX003 (ip), vehicle: saline): 100 % of control

SMILES: CC1(O)C=CC(=O)C=C1
- T/C (dose: 25.0 mg/kg/injection, schedule: Q04DX003 (ip), vehicle: water): 96 % of control
- T/C (dose: 50.0 mg/kg/injection, schedule: Q04DX003 (ip), vehicle: water): 64 % of control
